Assay: Purity of everolimus in ethanol solution
Format: physicochemical
Settings: dissolved in ethanol, 3 hours/25° C.
Procedure: However, since an aqueous solution of a coating agent needs to be used in order to prepare such a film-coated tablet, the aforementioned method cannot be applied to drugs having low chemical stability against aqueous solvents. […] For example, everolimus as a rapamycin derivative has physical properties, by which when it is dissolved in ethanol to prepare an ethanol solution thereof, its purity is decreased by 4% or more under conditions of 3 hours/25° C. As such, it is not preferable that a film coating technique involving the use of an aqueous solvent be applied, as a pharmaceutical formulation of light-resistant preparations, to a pharmaceutical product tablet comprising, as an active ingredient, rapamycin and a derivative thereof.

decrease in purity in ethanol solution: ≥ 4%
SMILES: CO[C@H]1C[C@@H]2CC[C@@H](C)[C@@](O)(O2)C(=O)C(=O)N2CCCC[C@H]2C(=O)O[C@H]([C@H](C)C[C@@H]2CC[C@@H](OCCO)[C@H](OC)C2)CC(=O)[C@H](C)/C=C(\C)[C@@H](O)[C@@H](OC)C(=O)[C@H](C)C[C@H](C)/C=C/C=C/C=C/1C [everolimus, 40-O-(2-hydroxyethyl)rapamycin]

From patent publication US20190290631A1, “PHARMACEUTICAL COMPOSITION COMPRISING RAPAMYCIN OR DERIVATIVE THEREOF” (NIPPON KAYAKU KABUSHIKI KAISHA, priority 2016, published 2019)
